{"source": "patent US11512280B2", "about": "“Method for culturing spore-forming bacteria, and method for producing useful substance” (priority 2016, dated 2022)", "type_in_all_cases": "cell-based", "key": {"[1]": {"test_system": "Bacillus subtilis MBI-600 strain", "assay": "Surfactin production by Bacillus subtilis, HPLC of culture supernatant (Example 4)", "protocol": "Using a 500 ml Erlenmeyer flask (with baffles), each 100 ml of media listed in Table 5 was prepared and then autoclave sterilization was carried out. Note that glucose was separately sterilized and aseptically mixed in order to avoid Maillard reaction.\n(§1) According to the conditions of each test section, the filter-sterilized aqueous solution of each sporulation-inhibiting substance was added aseptically to each medium. According to the conditions of each test section, one loopful of Bacillus subtilis MBI-600 strain was taken from a colony grown on a nutrient agar medium, inoculated, and then cultured with shaking at 30° C. and 150 rpm.\nFifty (50) hours after the start of culture, culture was stopped.\nEach of the obtained cultured liquid was centrifuged using a refrigerated centrifuge (TOMY SEIKO Co., Ltd. MX-307) at 10,000 rpm and 20° C. for 30 minutes, thereby collecting a supernatant.\nTo a solid-phase extraction column (Nihon Waters K.K. Oasis HLB 3 cc (400 mg) LP Extraction Cartridge), 3 ml of 0.1% TFA-containing acetonitrile was added and allowed to pass therethrough, and then 3 ml of 0.1% TFA-containing distilled water was added to pass through the column. Two ml of the thus collected centrifugal supernatant of each culture medium was added to pass through the column, 6 ml of 0.1% TFA-containing distilled water, and then 3 ml of 0.1% TFA-containing acetonitrile/distilled water (20:80, v/v) were allowed to pass through the column in sequence for washing. Next, 3 ml of 0.1% TFA-containing acetonitrile/distilled water (90:10, v/v) was allowed to pass through the column, thereby collecting an eluate. 0.1% TFA-containing acetonitrile/distilled water (90:10, v/v) was added, so that the amount of the collected solution was 4 ml, and then HPLC analysis was conducted under the following conditions.\nHPLC: Agilent Technologies, Inc. 1260 Infinity […]\nEach medium was compared with the authentic sample in terms of peak area detected at the elution time of 27.6 minutes and that of 28.4 minutes, thereby calculating the surfactin concentration in the culture medium."}, "[2]": {"test_system": "Bacillus thuringiensis NBRC 101235 strain", "assay": "Culture of Bacillus thuringiensis with sporulation-inhibiting substance, 40 hours (Example 3)", "settings": "for Bacterial cell concentration / Spore concentration / Sporulation rate: 40 hours culture", "protocol": "Using a 500 ml Erlenmeyer flask (with baffles), each 100 ml of media listed in Table 1 was prepared and then autoclave sterilization was carried out. Note that glucose was separately sterilized and aseptically mixed in order to avoid Maillard reaction.\nas §1, with “thuringiensis NBRC 101235” for “subtilis MBI-600”, “rpm for 40 hours.” for “rpm.”\n(§2) Each of the thus obtained culture liquid was diluted 10-fold with sterile water, and then the bacterial cell concentration (vegetative cells and spores) and the sporulation rate (spore concentration/bacterial cell concentration) were measured using an optical microscope and a bacterial cell counter."}, "[3]": {"test_system": "Bacillus subtilis MBI-600", "assay": "Culture of Bacillus subtilis with sporulation-inhibiting substance, 64 hours (Example 1)", "protocol": "Using a 500 ml Erlenmeyer flask (with baffles), each 100 ml of media listed in Table 1 was prepared and then autoclave sterilization was carried out. Glucose was separately sterilized and aseptically mixed in order to avoid Maillard reaction.\nas §1, with “One” for “According to the conditions of each test section, one”, “MBI-600” for “MBI-600 strain”, “rpm for 64 hours.” for “rpm.”\nas §2"}, "[4]": {"test_system": "Bacillus subtilis MBI-600 strain", "assay": "Culture of Bacillus subtilis in Table 5 medium with sporulation-inhibiting substance, 50 hours, cell and spore counts (Example 4)", "settings": "for Bacterial cell concentration: carbon content 18.2 g/L", "protocol": "Using a 500 ml Erlenmeyer flask (with baffles), each 100 ml of media listed in Table 5 was prepared and then autoclave sterilization was carried out. Note that glucose was separately sterilized and aseptically mixed in order to avoid Maillard reaction. According to the conditions of each test section, the filter-sterilized aqueous solution of each sporulation-inhibiting substance was added aseptically to each medium. According to the conditions of each test section, one loopful of Bacillus subtilis MBI-600 strain was taken from a colony grown on a nutrient agar medium, inoculated, and then cultured with shaking at 30° C. and 150 rpm. Fifty (50) hours after the start of culture, culture was stopped."}, "[5]": {"settings": "0.1 ppm added, 64 hours culture"}, "[6]": {"settings": "1.0 ppm added, 64 hours culture"}}}
{"smiles": "CC[C@H]1OC(=O)[C@H](C)[C@@H](O[C@H]2C[C@@](C)(OC)[C@@H](O)[C@H](C)O2)[C@H](C)[C@@H](O[C@@H]2O[C@H](C)C[C@H](N(C)C)[C@H]2O)[C@](C)(O)C[C@@H](C)C(=O)[C@H](C)[C@@H](O)[C@]1(C)O", "note": "[Erythromycin]", "values": [{"measurement": "Surfactin concentration", "setting": "[1]; 0.1 ppm and 0.2 ppm", "value": "tended to increase"}, {"measurement": "Surfactin concentration", "setting": "[1]; 0.1 ppm, 50 hours culture, in the culture medium", "value": 58.5, "unit": "ppm"}, {"measurement": "Surfactin concentration", "setting": "[1]; 0.2 ppm, 50 hours culture, in the culture medium", "value": 75.7, "unit": "ppm"}, {"measurement": "bacterial cell concentration and spore concentration", "setting": "[2]; 0.05 ppm", "value": "tended to increase"}, {"measurement": "Bacterial cell concentration", "setting": "[2]; 0.05 ppm", "value": "1.5e+09", "unit": "mL⁻¹"}, {"measurement": "Spore concentration", "setting": "[2]; 0.05 ppm", "value": "1.1e+09", "unit": "mL⁻¹"}, {"measurement": "Sporulation rate", "setting": "[2]; 0.05 ppm", "value": 73, "unit": "%"}, {"measurement": "effect of inhibiting sporulation", "setting": "[2]; 0.1 ppm", "value": "confirmed"}, {"measurement": "Bacterial cell concentration", "setting": "[2]; 0.1 ppm", "value": "2e+09", "unit": "mL⁻¹"}, {"measurement": "Spore concentration", "setting": "[2]; 0.1 ppm", "value": "3e+08", "unit": "mL⁻¹"}, {"measurement": "Sporulation rate", "setting": "[2]; 0.1 ppm", "value": 16, "unit": "%"}, {"measurement": "effect of inhibiting sporulation", "setting": "[3]; 0.1 ppm", "value": "not observed"}, {"measurement": "Spore concentration", "setting": "[3]; [5]", "value": "2.8e+09", "unit": "mL⁻¹"}, {"measurement": "Sporulation rate", "setting": "[3]; [5]", "value": 80, "unit": "%"}, {"measurement": "Bacterial cell concentration", "setting": "[3]; 0.1 ppm added, 64 hours culture, carbon content 9.1 g/L", "value": "3.5e+09", "unit": "mL⁻¹"}, {"measurement": "effect of inhibiting sporulation", "setting": "[3]; 1 ppm", "value": "observed"}, {"measurement": "Bacterial cell concentration", "setting": "[3]; [6]", "value": "6.2e+09", "unit": "mL⁻¹"}, {"measurement": "Sporulation rate", "setting": "[3]; [6]", "value": 0, "unit": "%"}, {"measurement": "bacterial cell concentrations as the concentration of the substance increased", "setting": "[3]; trend over tested concentrations", "value": "tended to increase"}, {"measurement": "Spore concentration", "setting": "[4]; 0.1 ppm and 0.2 ppm", "value": "tended to increase"}, {"measurement": "Spore concentration", "setting": "[4]; 0.1 ppm, 50 hours culture", "value": "8e+09", "unit": "mL⁻¹"}, {"measurement": "Sporulation rate", "setting": "[4]; 0.1 ppm, 50 hours culture", "value": 99, "unit": "%"}, {"measurement": "Bacterial cell concentration", "setting": "[4]; 0.1 ppm, 50 hours culture", "value": "8.1e+09", "unit": "mL⁻¹"}, {"measurement": "Spore concentration", "setting": "[4]; 0.2 ppm, 50 hours culture", "value": "6.9e+09", "unit": "mL⁻¹"}, {"measurement": "Sporulation rate", "setting": "[4]; 0.2 ppm, 50 hours culture", "value": 100, "unit": "%"}, {"measurement": "Bacterial cell concentration", "setting": "[4]; 0.2 ppm, 50 hours culture", "value": "6.9e+09", "unit": "mL⁻¹"}]}
